Read-outs that look alike come from different tables or passages of the source.
Legend:
IKKα [1] = target: T1, IKKα (Homo sapiens, UniProt O15111); details: previous work [6]; read-out: IKKα inhibitory activity (Ki) of previous hit; cited from earlier work
T1 sequence (O15111 1-745): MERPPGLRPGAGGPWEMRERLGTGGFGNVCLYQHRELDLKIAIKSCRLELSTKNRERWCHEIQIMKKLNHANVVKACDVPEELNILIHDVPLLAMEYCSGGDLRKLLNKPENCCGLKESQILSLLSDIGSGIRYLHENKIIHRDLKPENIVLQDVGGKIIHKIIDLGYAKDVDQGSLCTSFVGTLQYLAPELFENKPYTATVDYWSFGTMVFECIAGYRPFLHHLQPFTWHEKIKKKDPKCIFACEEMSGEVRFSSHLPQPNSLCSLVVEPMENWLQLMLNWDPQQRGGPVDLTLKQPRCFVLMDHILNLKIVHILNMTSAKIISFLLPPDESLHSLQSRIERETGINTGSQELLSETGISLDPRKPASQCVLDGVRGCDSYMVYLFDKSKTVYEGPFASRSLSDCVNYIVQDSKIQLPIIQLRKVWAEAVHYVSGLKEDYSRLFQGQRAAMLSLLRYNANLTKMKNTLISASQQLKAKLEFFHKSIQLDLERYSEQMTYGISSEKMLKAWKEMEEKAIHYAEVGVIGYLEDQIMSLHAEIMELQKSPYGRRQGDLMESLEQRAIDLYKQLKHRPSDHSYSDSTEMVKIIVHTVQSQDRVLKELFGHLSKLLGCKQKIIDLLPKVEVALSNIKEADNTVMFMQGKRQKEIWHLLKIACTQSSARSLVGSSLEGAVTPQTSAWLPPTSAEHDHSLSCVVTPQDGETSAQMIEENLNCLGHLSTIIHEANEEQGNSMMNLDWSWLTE

IKKα over IKKβ [2] = details: previous work [6]; cited from earlier work
U2OS cells = details: cited from earlier work
IKKα [3] = target: T1, IKKα; assay: in-house DELFIA kinase assay, IKKα; type: biochemical
Source text: (§1) To examine the pyrrolo[2,3 -b]pyridines as an alternative scaffold, we adopted the AIPP core because it had similar dimensions to 1 SU909, with HBD/HBA motifs positioned at the scaffold extremities to interact with both the hinge region and the G-loop wall of IKKα, a rationale we had previously proposed as the basis for imparting selectivity. A preliminary set of AIPP derivatives was designed to explore its utility as an IKK-targeting scaffold, whilst incorporating additional functionality through which to introduce selectivity for the IKKα isoform (2-4 SU1087, SU1266 and SU1253; FIG. 3). This was achieved by initially adopting two different approaches: either appending a hydrophobic moiety to the pyrrolo[2,3 -b]pyridine motif as a fused form to afford the tricyclic derivatives 2 and 3 SU1266 and SU1087, or as a phenyl substituent to introduce flexibility with the central pyrrolo[2,3 -b]pyridine moiety in 4 SU1253 . […] The pyrrolo[2,3 -b]pyridine was bound to the hinge region in the classical HBA/HBD motif with the GK+3 NH and C═O backbone, whilst the aminoindazole projected towards the top of the pocket to interact with the G-loop (FIG. 4A). […] In both isoforms, the 2 -phenyl moiety was oriented out from the hinge towards the exposed solvent area.

IKKβ = target: T2, IKKβ (Homo sapiens, UniProt O14920); assay: in-house DELFIA kinase assay, IKKβ; type: biochemical
T2 sequence (O14920 1-756): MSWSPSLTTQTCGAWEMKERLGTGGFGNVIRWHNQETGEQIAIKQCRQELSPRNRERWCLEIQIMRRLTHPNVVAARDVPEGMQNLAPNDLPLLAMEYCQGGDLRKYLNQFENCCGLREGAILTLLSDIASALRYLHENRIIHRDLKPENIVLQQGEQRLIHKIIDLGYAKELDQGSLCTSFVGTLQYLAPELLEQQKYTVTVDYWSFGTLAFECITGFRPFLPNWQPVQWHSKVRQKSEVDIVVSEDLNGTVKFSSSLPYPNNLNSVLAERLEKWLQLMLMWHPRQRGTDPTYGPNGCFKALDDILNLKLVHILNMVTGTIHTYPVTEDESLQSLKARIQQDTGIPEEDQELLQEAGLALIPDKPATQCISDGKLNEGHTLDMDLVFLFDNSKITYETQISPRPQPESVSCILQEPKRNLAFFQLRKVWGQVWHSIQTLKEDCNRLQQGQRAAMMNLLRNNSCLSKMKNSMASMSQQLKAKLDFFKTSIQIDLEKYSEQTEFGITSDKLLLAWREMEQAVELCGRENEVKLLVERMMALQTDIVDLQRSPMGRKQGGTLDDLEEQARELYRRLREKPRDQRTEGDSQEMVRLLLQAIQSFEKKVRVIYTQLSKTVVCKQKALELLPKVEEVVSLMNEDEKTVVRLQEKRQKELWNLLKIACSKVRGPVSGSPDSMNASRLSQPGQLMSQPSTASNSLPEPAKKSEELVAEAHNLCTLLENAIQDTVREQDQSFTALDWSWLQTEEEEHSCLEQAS
Source text: To examine the pyrrolo[2,3 -b]pyridines as an alternative scaffold, we adopted the AIPP core because it had similar dimensions to 1 SU909, with HBD/HBA motifs positioned at the scaffold extremities to interact with both the hinge region and the G-loop wall of IKKα, a rationale we had previously proposed as the basis for imparting selectivity. A preliminary set of AIPP derivatives was designed to explore its utility as an IKK-targeting scaffold, whilst incorporating additional functionality through which to introduce selectivity for the IKKα isoform (2-4 SU1087, SU1266 and SU1253; FIG. 3). This was achieved by initially adopting two different approaches: either appending a hydrophobic moiety to the pyrrolo[2,3 -b]pyridine motif as a fused form to afford the tricyclic derivatives 2 and 3 SU1266 and SU1087, or as a phenyl substituent to introduce flexibility with the central pyrrolo[2,3 -b]pyridine moiety in 4 SU1253 .

panel of kinases = assay: kinome profiling at 1 μM; type: biochemical
Source text: (§2) We profiled three compounds from the series across the kinome (FIG. 11). […] To identify the structural drivers for CDK inhibition, we obtained X-ray crystal structures of 5 y and 6 g SU1336 and SU1349 with CDK-2 (FIG. 12A) to potentially identify possible routes towards introducing selectivity for IKKα over the CDK enzymes as well as IKKβ. […] All three derivatives form complexes with CDK2 with the pyrrolo[2,3 -b]pyridine H-bonding to GK+3 (Leu 83 ) and the aminoindazole projected towards the G-loop (FIG. 12A), forming H-bonds with Glu 51 and Lys 33 at the back of the pocket. The adoption of the 4 SU1253 -type orientation, rather than the flipped pose observed in IKKα, is probably facilitated by Tr-stacking between the aminoindazole and the GK residue, which in the CDKs is Phe, rather than Met. […] For 6 g SU1349, the hydrophobic pendant benzyloxy group points out into solvent, but can form face-to-edge Tr-Tr interactions with Phe 82 and His 84 from the hinge. Exchanging the hydrophobic pendant benzyloxy group for the morpholinoethyl-containing substituent in 5 y SU1336 removes any direct interaction with these hinge residues, preferring to sit in a more solvent-exposed position, as befits a basic side chain that will be protonated at physiological pH (FIG. 12B).
(§3) Black, 4 SU1253; grey, 5 r SU1261; diagonal stripes, 6 g SU1349. […] All tested compounds (4 SU1253, 5 r SU1261 and 6 g SU1349 ) inhibited CDK5 and CDK9 with >80 %.

CDK5 = CDK5 (Homo sapiens, UniProt Q00535); assay: kinome profiling at 1 μM, CDK5; type: biochemical; details: read-out: % inhibition of CDK5
Source text: as §2, §3

CDK9 = CDK9 (Homo sapiens, UniProt P50750); assay: kinome profiling at 1 μM, CDK9; type: biochemical; details: read-out: % inhibition of CDK9
Source text: as §2, §3

IKKα over IKKβ [4] = assay: selectivity for IKKα over IKKβ from the kinase assay; type: biochemical
Source text: as §1
To shift the selectivity profile towards IKKα, we selected 4 SU1253 for structural optimization based on the notion that sigma-bond rotation between the phenyl ring and the pyrrolo[2,3 -b]pyridine would inbuild the flexibility required to engage with the three dimensional array of residues nearby to exploit differences between the two isoforms. Furthermore, this would enable the inclusion of moieties that could also project into solvent and address solubility considerations. Small groups (NH2, OH, OMe, OEt and F) were initially introduced into the phenyl ring to evaluate their impact on the selectivity profile against both IKKs (5 a-g SU1354 -SU1373, Table 2 ). Our goal was to achieve a 1:50 selectivity ratio of IKKα to IKKβ, with a minimum IKKβ inhibitory Ki of 500 nM.

Turbidimetric solubility = type: physicochemical
[5] = mouse hepatocyte clearance (cryopreserved pooled mouse CD1 hepatocytes); type: in vitro ADME; details: mouse, hepatocytes; 1 μM; 0.5×10^6 cells/mL; 37° C.
Procedure: Pharmacokinetic studies were contracted to Sygnature Discovery Limited. Intrinsic clearance and half life were determined using cryopreserved pooled mouse CD1 hepatocytes. Test compounds were analysed at 1 μM in Williams Media E buffer (0.01 % DMSO) at a cell density of 0.5×10^6 cells mL^−1 . Cells were incubated at 37° C. for one hour with shaking and compound depletion was measured by LC-MS/MS at six timepoints (0.25, 5, 10, 20, 40, and 60 minutes).

Chain of CDK9 (P50750 whole entry, species assumed): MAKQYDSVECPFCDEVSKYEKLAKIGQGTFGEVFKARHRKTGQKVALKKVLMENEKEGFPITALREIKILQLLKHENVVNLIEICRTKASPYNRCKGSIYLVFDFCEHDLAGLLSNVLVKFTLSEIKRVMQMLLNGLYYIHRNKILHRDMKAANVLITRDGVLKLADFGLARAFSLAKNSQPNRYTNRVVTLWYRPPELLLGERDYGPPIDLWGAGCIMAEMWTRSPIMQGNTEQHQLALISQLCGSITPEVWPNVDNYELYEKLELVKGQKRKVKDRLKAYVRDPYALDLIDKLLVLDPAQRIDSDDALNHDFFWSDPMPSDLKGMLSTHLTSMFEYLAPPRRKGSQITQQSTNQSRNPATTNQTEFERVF
Chain of CDK9 (O60563 whole entry partner, species assumed): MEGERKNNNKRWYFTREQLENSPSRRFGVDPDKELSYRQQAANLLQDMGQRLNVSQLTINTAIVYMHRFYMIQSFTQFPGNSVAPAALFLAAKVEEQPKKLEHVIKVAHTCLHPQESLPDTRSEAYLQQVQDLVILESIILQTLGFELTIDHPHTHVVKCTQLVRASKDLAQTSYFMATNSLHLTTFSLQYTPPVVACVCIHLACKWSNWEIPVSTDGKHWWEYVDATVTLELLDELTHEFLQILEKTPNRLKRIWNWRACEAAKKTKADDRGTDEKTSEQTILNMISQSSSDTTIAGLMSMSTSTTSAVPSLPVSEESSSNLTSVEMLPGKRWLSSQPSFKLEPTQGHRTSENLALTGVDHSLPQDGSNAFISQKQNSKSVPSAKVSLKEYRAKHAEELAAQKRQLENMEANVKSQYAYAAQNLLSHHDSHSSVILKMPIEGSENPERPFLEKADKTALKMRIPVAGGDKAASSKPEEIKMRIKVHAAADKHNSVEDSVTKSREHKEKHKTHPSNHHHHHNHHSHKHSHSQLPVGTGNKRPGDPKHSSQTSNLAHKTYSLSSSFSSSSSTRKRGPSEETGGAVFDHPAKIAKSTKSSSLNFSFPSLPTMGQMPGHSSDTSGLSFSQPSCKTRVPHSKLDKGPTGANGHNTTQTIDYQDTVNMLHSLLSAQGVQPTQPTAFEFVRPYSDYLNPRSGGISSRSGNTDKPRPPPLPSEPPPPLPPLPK
Chain of CDK5 (Q00535 whole entry, species assumed): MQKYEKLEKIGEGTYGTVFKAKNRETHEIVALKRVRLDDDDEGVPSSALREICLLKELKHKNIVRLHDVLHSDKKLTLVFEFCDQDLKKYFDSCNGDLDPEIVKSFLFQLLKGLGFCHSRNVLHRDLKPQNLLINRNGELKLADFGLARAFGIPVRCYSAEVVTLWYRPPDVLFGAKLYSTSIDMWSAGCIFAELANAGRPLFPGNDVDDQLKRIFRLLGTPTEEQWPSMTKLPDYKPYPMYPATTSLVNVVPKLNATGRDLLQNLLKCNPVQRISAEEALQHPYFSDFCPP
Chain of CDK5 (Q15078 99-307 partner limits assumed, species assumed): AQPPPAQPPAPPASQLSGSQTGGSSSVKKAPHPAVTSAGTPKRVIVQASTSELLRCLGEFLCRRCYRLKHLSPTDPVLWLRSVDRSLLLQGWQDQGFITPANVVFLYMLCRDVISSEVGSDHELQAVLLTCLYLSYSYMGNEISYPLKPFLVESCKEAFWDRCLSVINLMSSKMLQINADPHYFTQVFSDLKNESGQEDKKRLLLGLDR

Ki (IKKα [3]) [nM] | Ki (IKKβ) [nM] | SMILES | selectivity for IKKα over IKKβ, in words (IKKα over IKKβ [4]) | other results
16 | 189 | Nc1n[nH]c2ccc(-c3ccnc4[nH]c(-c5ccc(OCc6ccccc6)cc5)cc34)cc12 [5s SU1334] | tended to improve IKKβactivity to reduce selectivity | 
4 | 67 | Cc1ccc(S(=O)(=O)Nc2ccc(-c3cc4c(-c5ccc6[nH]nc(N)c6c5)ccnc4[nH]3)cc2)cc1 [5u SU1283, N-(4-(4-(3 -Amino-1 H-indazol-5-yl)-1 H-pyrrolo[2,3-b]pyridin-2-yl)phenyl)-4-methylbenzenesulfonamide] | tended to improve IKKβactivity to reduce selectivity | 
12 | 22 | Nc1n[nH]c2ccc(-c3ccnc4[nH]c(-c5ccc(OCc6ccccc6)nc5)cc34)cc12 [6d SU1350, 5-(2-(6-(Benzyloxy)pyridin-3-yl)-1 H-pyrrolo[2,3-b]pyridin-4-yl)-1 H-indazol-3-amine] | reduced selectivity | 
6 | 12 | Nc1n[nH]c2ccc(-c3ccnc4[nH]c(-c5ccnc(OCc6ccncc6)c5)cc34)cc12 [6k SU1628, 5-(2-(2-(Pyridin-4-ylmethoxy)pyridin-4-yl)-1 H-pyrrolo[2,3-b]pyridin-4-yl)-1 H-indazol-3-amine] | equipotent against both isoforms | IKKβ inhibition, in words (IKKβ): potent inhibition against IKKβ; solubility, in words (Turbidimetric solubility): requisite solubility; hepatocyte CLint [5]: 11 µL/min/1e6 cells

The next lines start with the compound.

SMILES | Ki (IKKα [3]) [nM] | Ki (IKKβ) [nM] | selectivity for IKKα over IKKβ, in words (IKKα over IKKβ [4]) | other results
N#Cc1c[nH]c2nc(N)nc(-c3ccc(S(N)(=O)=O)cc3)c12 [1 SU909] |  |  |  | Ki (IKKα [1]): 80 nM; selective inhibition of IKKα, in words (IKKα over IKKβ [2]): selective inhibitor of IKKα; selectivity in U2OS cells, in words (U2OS cells): recapitulated this discrimination in U2OS cells
Nc1n[nH]c2ccc(-c3ccnc4[nH]c(-c5ccccc5)cc34)cc12 [4 SU1253, 5-(2 -Phenyl-1 H-pyrrolo[2,3-b]pyridin-4-yl)-1 H-indazol-3-amine] | 3 | 15 |  | kinome selectivity, in words (panel of kinases): very promiscuous; number of kinases inhibited by >80 % (panel of kinases; panel of 231 kinases): 44 kinases; number of kinases inhibited by >80 % (panel of kinases; panel of 253 kinases (FIG. 11)): 46 kinases; inhibition at 1 µM (CDK5): > 80%; inhibition at 1 µM (CDK9): > 80%
Nc1n[nH]c2ccc(-c3ccnc4[nH]c(-c5cccc(CNC6CCCC6)c5)cc34)cc12 [5n SU1550, 5-(2-(3-((cyclopentylamino)methyl)phenyl)-1 H-pyrrolo[2,3-b]pyridin-4-yl)-1 H-indazol-3-amine] | 10 | 191 | tended to improve selectivity | 
CC(C)COc1cccc(-c2cc3c(-c4ccc5[nH]nc(N)c5c4)ccnc3[nH]2)c1 [5o SU1367, 5-(2-(3 -Isobutoxyphenyl)-1 H-pyrrolo[2,3-b]pyridin-4-yl)-1 H-indazol-3-amine] | 19 | 458 | tended to improve selectivity | IKKβ inhibition, in words (IKKβ): lowest activity against IKKβ
